# Measured values as given in publication PMC6934184, “Selective DNA-PKcs inhibition extends the therapeutic index of localized radiotherapy and chemotherapy” (The Journal of Clinical Investigation, 2019).
# Experiments:
# [1] = test system: DNA-PK–expressing tumor cell lines; assay: clonogenic survival with IR, tumor cell line panel; format: cell-based, human; settings: 1 μM, 24 hours
# Procedure: Cell line γH2AX and 53BP1 foci immunofluorescence and quantitation
# Cells grown on coverslips or in 96-well plates were treated with 1 or 5 µM NU5455 or DMSO 1 hour prior to irradiation (0, 2.5 or 10 Gy) using an RS 320 X-ray Research System (Gulmay Medical). At set timepoints (15 or 30 minutes, or 1, 4, 5, 6, or 24 hours post-irradiation), cells were washed and fixed in methanol or 3% paraformaldehyde (PFA). […] In A549 and Calu-6, cells were Hoechst stained (5 µg/ml), and the average numbers of γH2AX and 53BP1 foci per cell were quantified from 400 nuclei per sample using an In Cell analyzer 1000 (GE Healthcare). For MCF7 cells, coverslips were mounted using Vectashield mounting medium with DAPI (Vector Labs) and imaged using a Leica TCS SPE confocal fluorescence microscope. Total fluorescence intensity was determined using ImagePro Plus 5.0 software (Media Cybernetics). […]
# Cells were washed in phosphate-buffered saline (PBS), trypsinized and counted. […] Colonies were fixed using Carnoys fixture (75% v/v methanol, 25% v/v acetic acid, Fisher), stained with crystal violet (0.4% w/v in water), and counted using a ColCount automated colony counter (Oxford Optronics). Cell survival was calculated as a percentage of the untreated control. […]
# [2] = test system: Huh7; assay: clonogenic survival with doxorubicin; format: cell-based, human; settings: NU5455 1 μM, 24 hours
smiles,measurement,setting,value
CN(C(=O)CN1CCOCC1)c1ccc2sc3c(-c4cccc5c(=O)cc(N6CC7CCC(C6)O7)oc45)cccc3c2c1 [NU5455],"SER80 values, median over cell lines",[1],2.3 fold
same,"Fold potentiation of doxorubicin (LD80, SER80)",[2],3.5 fold
